# Measurements taken from article PMC12905488, “De novo cyclic peptides allow visualisation of the monomeric and functional amyloid conformations of the kinase RIPK3” (Biochemical Journal, 2026).
# Where a SMILES comes first, the peptide text is derived from it. Bridges are numbered along the chain shown (N, C = ends).
# Assays:
# [1] = Turbidity assay (absorbance at 350 nm); format: physicochemical; details: qualitative, tetra-lysine-tagged compared with K* peptide
# Protocol: Solutions with appropriate buffering agent at pH 4.0–8.0 as specified, NaCl as required and containing 40 μM ThT were prepared in Corning^TM black clear bottom 96-well plates (cat no. 3631). Peptides and proteins were diluted from concentrated stocks into buffer immediately prior to measurement. […] Plates were sealed with optically clear sealing film (Corning^TM, cat no. 6575) and loaded into a BMG POLARstar Omega microplate reader maintained at RT or 37 °C. Plates were shaken for 30 s at 700 rpm before first read (unless otherwise specified), and wells were excited at 440 nm, with fluorescence emission measured at 480 nm (filters +/– 10 nm). The gain was set at 1–5% from a buffer and ThT-containing sample. Assays were continued until fluorescence emission plateaued. Turbidity assays were performed concurrently to ThT assays, with absorbance at 350 nm measured after ThT emission measurement.
# [2] = test system: HT-29 cells; test: Confocal imaging of labelled peptides in fixed, permeabilised HT-29 cells; format: cell-based, human; details: 10 nM labelled peptide, 30 min, cells untreated (DMSO), apoptosis (TNF + BV-6) or necroptosis (TSZ), 6 h, washed
# Protocol: HT-29 cells grown in TC treated T175 flasks (Corning^TM) were aspirated, washed once with RT DPBS then trypsinised with 0.3 vol warmed trypsin EDTA for 3–5 min at 37 °C twice. Trypsin was quenched with 0.7 vol warmed D10 and then the mixture was centrifuged 400×g at RT for 5 min. Supernatant was discarded, then cells were resuspended in warm supplemented DMEM. A small sample was diluted 1:10 in trypan blue and loaded onto a haemocytometer for cell counting, then the cell suspension was diluted in warmed DMEM to 8.5 × 10^4 cells/ml. Cells were seeded onto a 96-well clear bottom PhenoPlate (Revvity) coated in a collagen I matrix at 1.7 × 10^4 cells/well and incubated at 37 °C in 5% CO2 overnight.
# CellTracker^TM Orange CMRA (Invitrogen) was diluted to 5 μM in DMEM and warmed to 37 °C. HT-29 cells were washed once in DPBS, then CellTracker^TM Orange (50 μl) was added to each well (excluding wells to be incubated with Alexa Fluor 594-labelled control peptide) and incubated at 37 °C in 5% CO2 for 45 min. Following incubation, CellTracker^TM Orange solution was aspirated and replaced with 150 μl D10. […]
# Imaging was performed on an Opera Phenix (PerkinElmer) at 63X magnification (water immersion) in confocal mode using the parameters given below. […] Intensity thresholds were adjusted as indicated to remove background fluorescence based on control wells for image exports. […] Cell counts were identified using DAPI stain (Method C) and cytoplasm identified by CellTracker^TM Orange stain (Method B), and all subsequent analysis was conducted on Cy5 fluorescence detected within cells as determined by these parameters. Total Cy5 intensity analysis, as well as spot analysis (spots detected using Method B), was performed measuring number of detected spots, mean spot size (px^2) and spot fluorescence intensity (corrected and relative). […] Statistical significance between untreated, apoptosis and necroptosis induced conditions and between no peptide controls was determined by 2-way ANOVA testing using Tukey’s multiple comparisons tests.
SMILES,solubility [1],"presence/binding of labelled peptide in fixed, permeabilised cells [2]"
CC(C)C[C@H](NC(=O)[C@H](C)NC(=O)[C@H](Cc1ccc(O)cc1)NC(=O)[C@H](Cc1ccccc1)NC(=O)[C@H](CCCNC(=N)N)NC(=O)[C@H](CCCCN)NC(=O)[C@H](C)NC(=O)[C@H](CCCNC(=N)N)NC(=O)[C@H](CC(C)C)NC(=O)[C@@H](NC(=O)[C@@H]1CSCC(=O)N[C@@H](Cc2ccc(O)cc2)C(=O)N[C@@H](C(C)C)C(=O)N[C@@H](CC(C)C)C(=O)N1)[C@@H](C)O)C(=O)N[C@@H](Cc1ccccc1)C(=O)N[C@@H](CC(C)C)C(=O)N[C@@H](CO)C(=O)NCC(=O)N[C@@H](CCCCN)C(=O)N[C@@H](CCCCN)C(=O)N[C@@H](CCCCN)C(=O)N[C@@H](CCCCN)C(=O)O [A1Ktag] ({CH2CO}-YVLCTLRAKRFYALFLSGKKKK-OH; thioether N-4; C-terminus assumed),increased solubility,observed inside all cells
CC[C@H](C)[C@@H]1NC(=O)[C@H](Cc2ccc(O)cc2)NC(=O)[C@H](CCCNC(=N)N)NC(=O)[C@H](CO)NC(=O)[C@H](Cc2c[nH]c3ccccc23)NC(=O)[C@@H]2CCCN2C(=O)[C@H](C(C)C)NC(=O)[C@H](CC(N)=O)NC(=O)[C@H](Cc2ccccc2)NC(=O)[C@H](Cc2ccc(O)cc2)NC(=O)CSC[C@@H](C(=O)NCC(=O)N[C@@H](CCCCN)C(=O)N[C@@H](CCCCN)C(=O)N[C@@H](CCCCN)C(=O)N[C@@H](CCCCN)C(=O)O)NC(=O)[C@H](Cc2ccc(O)cc2)NC(=O)[C@H](Cc2ccc(O)cc2)NC(=O)[C@H](C(C)C)NC(=O)[C@H](CO)NC(=O)[C@H](CC(C)C)NC1=O [A2Ktag] ({CH2CO}-YFNVPWSRYILSVYYCGKKKK-OH; thioether N-16; C-terminus assumed),,observed inside all cells
CC[C@H](C)[C@@H]1NC(=O)[C@H](Cc2ccc(O)cc2)NC(=O)CSC[C@@H](C(=O)N[C@@H](Cc2c[nH]c3ccccc23)C(=O)N[C@H](C(=O)N[C@@H](Cc2c[nH]c3ccccc23)C(=O)N[C@@H](CC(C)C)C(=O)N[C@@H](CC(C)C)C(=O)N[C@@H](CO)C(=O)NCC(=O)N[C@@H](CCCCN)C(=O)N[C@@H](CCCCN)C(=O)N[C@@H](CCCCN)C(=O)N[C@@H](CCCCN)C(=O)O)C(C)C)NC(=O)[C@H](CCC(N)=O)NC(=O)[C@H](CC(=O)O)NC(=O)[C@H](Cc2ccc(O)cc2)NC(=O)[C@H](Cc2c[nH]c3ccccc23)NC(=O)[C@H](CCCNC(=N)N)NC(=O)[C@H](CC(C)C)NC(=O)[C@H](C(C)C)NC(=O)[C@H](CCC(=O)O)NC1=O [A4Ktag] ({CH2CO}-YIEVLRWYDQCWVWLLSGKKKK-OH; thioether N-11; C-terminus assumed),,observed inside all cells
